Experimental data: ChEMBL document CHEMBL4837256, “Discovery and Characterization of a Rapidly Fungicidal and Minimally Toxic Peptoid against Cryptococcus neoformans” (ACS Med Chem Lett, 2021)
Values after ≈ are worked out from the molar mass of the structure shown. Active and inactive are the calls of the source. No cut-off for these calls is given here. Where a SMILES comes first, the peptide text is derived from it. [ ]: non-standard residue; d: D form. N(tridecyl)Gly = CCCCCCCCCCCCCNCC(=O)O; Gly(N-2-aminoethyl) = NCCNCC(=O)O; Gly(N-cHex) = O=C(O)CNC1CCCCC1; Nlys = NCCCCNCC(=O)O; Sar = CNCC(=O)O

Assays:
[1] = Cytotoxicity against human HepG2 cells assessed as cell death measured after 72 hrs by MTT assay; type: cell-based; details: read-out: TD50
Cryptococcus neoformans [2] = assay: Antifungal activity against Cryptococcus neoformans H99S assessed as inhibition of fungal growth measured after 72 hrs by Plate reader assay; type: functional
[3] = Selectivity ratio of TD50 for human HepG2 cells to MIC for Cryptococcus neoformans H99S; type: toxicity
Cryptococcus neoformans [4] = assay: Antifungal activity against Cryptococcus neoformans assessed as assessed as half life for fungal killing; type: functional, organism-based
Cryptococcus neoformans [5] = assay: Antifungal activity against Cryptococcus neoformans H99S assessed as half life for fungal killing at 12.5 ug/ml by Plate reader assay; type: functional, organism-based; details: dose 12.5 µg/ml
[6] = Selectivity ratio of TD50 for mouse 3T3 cells to MIC for Cryptococcus neoformans H99S; type: toxicity
Enterococcus faecium = assay: Antibacterial activity against Enterococcus faecium ATCC 6569 assessed as inhibition of bacterial growth measured after 24 hrs by Plate reader method; type: functional
Cryptococcus neoformans [7] = assay: Antifungal activity against Cryptococcus neoformans H99S assessed as inhibition of fungal growth preincubated with human serum for 1 hr followed by incubation with fungus and measured after 72 hrs by Plate reader method; type: functional; details: time 73 hrs
Candida albicans [8] = assay: Antifungal activity against Candida albicans ATCC10231 assessed as inhibition of fungal growth measured after 24 hrs by Plate reader assay; type: functional
[9] = Antifungal activity against Cryptococcus gattii R272 ATCC MYA-4094 assessed as inhibition of fungal growth measured after 72 hrs by Plate reader assay; type: functional, Cryptococcus gattii VGI
[10] = Antifungal activity against Cryptococcus gattii R265 ATCC MYA-4093 assessed as inhibition of fungal growth measured after 72 hrs by Plate reader assay; type: functional, Cryptococcus gattii VGI
Enterococcus faecalis = assay: Antibacterial activity against Enterococcus faecalis ATCC 29212 assessed as inhibition of bacterial growth measured after 24 hrs by Plate reader method; type: functional
Candida albicans [11] = assay: Antifungal activity against Candida albicans ATCC10231 assessed as inhibition of biofilm formation measured after 24 hrs by fluorescence based plate reader assay; type: functional
[12] = Stability of compound assessed as trypsin-mediated compound degradation at 2 mg/ml measured after 24 hrs by RP-HPLC method; type: ADME; details: isolated protein
Pseudomonas aeruginosa = assay: Antibacterial activity against Pseudomonas aeruginosa ATCC 25619 assessed as inhibition of bacterial growth measured after 24 hrs by Plate reader method; type: functional
[13] = Selectivity ratio of TD50 for human HaCaT cells to MIC for Cryptococcus neoformans H99S; type: toxicity
[14] = system: Mycolicibacterium smegmatis; assay: Antibacterial activity against Mycobacterium smegmatis assessed as inhibition of bacterial growth measured after 72 hrs by Plate reader method; type: functional
[15] = Cytotoxicity against mouse 3T3 cells assessed as cell death measured after 72 hrs by MTT assay; type: cell-based; details: read-out: TD50
Escherichia coli = assay: Antibacterial activity against Escherichia coli ATCC 25922 assessed as inhibition of bacterial growth measured after 24 hrs by Plate reader method; type: functional
Acinetobacter baumannii = assay: Antibacterial activity against Acinetobacter baumannii ATCC 19606 assessed as inhibition of bacterial growth measured after 24 hrs by Plate reader method; type: functional; details: ATCC 19606 = CIP 70.34 = JCM 6841
[16] = Selectivity ratio of HC10 for human RBC to MIC for Cryptococcus neoformans H99S; type: toxicity; details: red blood cells (RBC)
Erythrocyte = assay: Hemolytic activity in human RBC measured after 1 hr by microplate reader method; type: ADME, cell-based
[17] = Cytotoxicity against human HPL1A cells assessed as cell death measured after 72 hrs by MTT assay; type: cell-based; details: read-out: TD50
Cryptococcus neoformans [18] = assay: Indifferent antifungal activity against Cryptococcus neoformans H99S assessed as fractional inhibitory concentration index incubated for 72 hrs in presence of 0.5 to 32 ug/ml fluconazole by checkerboard microdilution assay; type: functional
Staphylococcus aureus = assay: Antibacterial activity against Staphylococcus aureus ATCC 29213 assessed as inhibition of bacterial growth measured after 24 hrs by Plate reader method; type: functional
Cryptococcus neoformans [19] = assay: Fungicidal activity against Cryptococcus neoformans H99S assessed as fungal killing at 12.5 ug/ml measured after drug wash-out; type: functional, organism-based; details: dose 12.5 µg/ml
Cryptococcus neoformans [20] = assay: […] antifungal activity against Cryptococcus neoformans H99S assessed as fractional inhibitory concentration index incubated for 72 hrs in presence of 0.03 to 2 ug/ml Amphotericin B by checkerboard microdilution assay; type: functional
[21] = Cytotoxicity against human HaCaT cells assessed as cell death measured after 72 hrs by MTT assay; type: cell-based; details: read-out: TD50
Lipid bilayer = assay: Induction of membrane disruption in calcein loaded PC:PE:PS:Ergosterol (4:2:1:0.1) liposomes mimicking Cryptococcus neoformans H99S membrane assessed as increase in fluorescence intensity measured after 1 hr by liposome assay
[22] = Selectivity ratio of MIC for Cryptococcus gattii R272 ATCC MYA-4094 to MIC for Cryptococcus neoformans H99S measured after 72 hrs by Plate reader assay; type: functional
Cryptococcus neoformans [23] = assay: Antifungal activity against Cryptococcus neoformans H99S assessed as dead cells at 12.5 ug/ml measured after 30 mins by time-to-kill assay; type: functional; details: dose 12.5 µg/ml, 0.5 h
Cryptococcus neoformans [24] = assay: Antifungal activity against Cryptococcus neoformans H99S assessed as elimination of viable cells at 12.5 ug/ml measured after 1 hr by Plate reader assay; type: functional; details: dose 12.5 µg/ml
[25] = Selectivity ratio of MIC for Cryptococcus gattii R265 ATCC MYA-4093 to MIC for Cryptococcus neoformans H99S measured after 72 hrs by Plate reader assay; type: functional
[26] = Selectivity ratio of TD50 for human HPL1A cells to MIC for Cryptococcus neoformans H99S; type: toxicity
[27] = Protein binding in human serum at 100 ug/ml measured after 24 hrs by RP-HPLC method; type: ADME, cell-free; details: at 100 µg/mL
Klebsiella pneumoniae = assay: Antibacterial activity against Klebsiella pneumoniae ATCC 13883 assessed as inhibition of bacterial growth measured after 24 hrs by Plate reader method; type: functional
Cryptococcus neoformans [28] = assay: Indifferent antifungal activity against Cryptococcus neoformans H99S assessed as fractional inhibitory concentration index incubated for 72 hrs in presence of 0.25 to 16 ug/ml flucytosine by checkerboard microdilution assay; type: functional

CCCCCCCCCCCCCNCC(=O)N(CC(=O)N(C)CC(=O)N(CCN)CC(=O)N(CC(N)=O)C1CCCCC1)C1CCCCC1
CC50 at 72 h [1]: 83 µg/mL (≈ 118 µM)
MIC (Cryptococcus neoformans [2]): 3.13 µg/mL (≈ 4.43 µM)
selectivity ratio [3]: 27

CCCCCCCCCCCCCNCC(=O)N(CCCCN)CC(=O)N(CC(N)=O)Cc1ccco1
T1/2 (Cryptococcus neoformans [4]): 30 min

CCCCCCCCCCCCCNCC(=O)N(CC(=O)N(CCCCN)CC(=O)N(CCN)CC(=O)N(CC(N)=O)C1CCCCC1)C1CCCCC1 (H-[N(tridecyl)Gly][Gly(N-cHex)][Nlys][Gly(N-2-aminoethyl)][Gly(N-cHex)]-NH2)
T1/2 (Cryptococcus neoformans [5]): 6.5 min
selectivity ratio [6]: 38
CC50 at 72 h [1]: 189 µg/mL (≈ 248 µM)
MIC (Enterococcus faecium): 6.25 µg/mL (≈ 8.19 µM)
MIC (Cryptococcus neoformans [7]): 3.13 µg/mL (≈ 4.1 µM)
MIC (Candida albicans [8]): 25 µg/mL (≈ 32.8 µM)
MIC [9]: 3.13 µg/mL (≈ 4.1 µM)
MIC [10]: 3.13 µg/mL (≈ 4.1 µM)
MIC (Enterococcus faecalis): 6.25 µg/mL (≈ 8.19 µM)
MIC (Candida albicans [11]): 100 µg/mL (≈ 131 µM)
Stabilty [12]: Stable
MIC (Pseudomonas aeruginosa): 100 µg/mL (≈ 131 µM)
selectivity ratio [13]: 35
MIC (Cryptococcus neoformans [2]): 1.56 µg/mL (≈ 2.04 µM)
MIC [14]: 3.13 µg/mL (≈ 4.1 µM)
CC50 at 72 h [15]: 59 µg/mL (≈ 77.3 µM)
MIC (Escherichia coli): 12.5 µg/mL (≈ 16.4 µM)
MIC (Acinetobacter baumannii): 25 µg/mL (≈ 32.8 µM)
selectivity ratio [16]: 49
HC10 (Erythrocyte): 77 µg/mL
selectivity ratio [3]: 120
CC50 at 72 h [17]: 74 µg/mL (≈ 97 µM)
fractional inhibitory concentration index (FICI) (Cryptococcus neoformans [18]): 2
MIC (Staphylococcus aureus): 6.25 µg/mL (≈ 8.19 µM)
Activity (Cryptococcus neoformans [19]): Active
fractional inhibitory concentration index (FICI) (Cryptococcus neoformans [20]): 0.75
CC50 at 72 h [21]: 54 µg/mL (≈ 70.8 µM)
Activity (Lipid bilayer): Active
Selectivity ratio [22]: 2
Activity (Cryptococcus neoformans [23]): >50%
Activity (Cryptococcus neoformans [24]): 100%
Selectivity ratio [25]: 2
selectivity ratio [26]: 47
PB [27]: Not Active
MIC (Klebsiella pneumoniae): 100 µg/mL (≈ 131 µM)
fractional inhibitory concentration index (FICI) (Cryptococcus neoformans [28]): 2

CCCCCCCCCCCCCNCC(=O)N(CC(=O)N(CCCCN)CC(=O)N(CCN)CC(=O)N(C)CC(N)=O)C1CCCCC1 (H-[N(tridecyl)Gly][Gly(N-cHex)][Nlys][Gly(N-2-aminoethyl)][Sar]-NH2)
CC50 at 72 h [1]: > 200 µg/mL
MIC (Cryptococcus neoformans [2]): 6.25 µg/mL (≈ 8.99 µM)

CCCCCCCCCCCCCNCC(=O)N(CC(=O)N(CCCCN)CC(=O)N(C)CC(=O)N(CC(N)=O)C1CCCCC1)C1CCCCC1 (H-[N(tridecyl)Gly][Gly(N-cHex)][Nlys][Sar][Gly(N-cHex)]-NH2)
CC50 at 72 h [1]: 84 µg/mL (≈ 114 µM)
MIC (Cryptococcus neoformans [2]): 3.13 µg/mL (≈ 4.26 µM)
selectivity ratio [3]: 27

CCCCCCCCCCCCCNCC(=O)N(C)CC(=O)N(CCCCN)CC(=O)N(CCN)CC(=O)N(CC(N)=O)C1CCCCC1 (H-[N(tridecyl)Gly][Sar][Nlys][Gly(N-2-aminoethyl)][Gly(N-cHex)]-NH2)
CC50 at 72 h [1]: > 200 µg/mL
MIC (Cryptococcus neoformans [2]): 6.25 µg/mL (≈ 8.99 µM)

CNCC(=O)N(CC(=O)N(CCCCN)CC(=O)N(CCN)CC(=O)N(CC(N)=O)C1CCCCC1)C1CCCCC1 (H-[Sar][Gly(N-cHex)][Nlys][Gly(N-2-aminoethyl)][Gly(N-cHex)]-NH2)
CC50 at 72 h [1]: > 200 µg/mL
MIC (Cryptococcus neoformans [2]): > 50 µg/mL

C[C@@H]1[C@H](O)[C@@H](C)/C=C/C=C/C=C/C=C/C=C/C=C/C=C/[C@H](O[C@@H]2O[C@H](C)[C@@H](O)[C@H](N)[C@@H]2O)C[C@@H]2O[C@](O)(C[C@@H](O)C[C@@H](O)[C@H](O)CC[C@@H](O)C[C@@H](O)CC(=O)O[C@H]1C)C[C@H](O)[C@H]2C(=O)O [AMPHOTERICIN B]
T1/2 (Cryptococcus neoformans [4]): 240 min
MIC (Cryptococcus neoformans [2]): 0.25 µg/mL (≈ 0.271 µM)

OC(Cn1cncn1)(Cn1cncn1)c1ccc(F)cc1F [FLUCONAZOLE]
MIC (Cryptococcus neoformans [2]): 2 µg/mL (≈ 6.53 µM)

Nc1nc(=O)[nH]cc1F [FLUCYTOSINE]
MIC (Cryptococcus neoformans [2]): 2 µg/mL (≈ 15.5 µM)
